Laboratory results reported in patent US6818642B2, “Benzylaminopyrimidines” (Altana Pharma AG, priority 2001, dated 2004).
≈ marks a conversion by molar mass, not a printed value.

What was measured:
Helicobacter pylori [1] = test: Helicobacter pylori eradication rate in vivo (urease test); settings: infected gerbils, 50 mg/kg by tube, 3 × daily, 4 days; urease test of antrum tissue four weeks after last treatment
Procedure: Determination of the Helicobacter Pylori Eradication Rate in Vivo
Gerbils were infected on days 1, 3, and 5 with a suspension containing 108-109 Helicobacter pylori bacteria per animal. […] Beginning on day 36, the gerbils were treated on four successive days—three times daily at 07.30, 11.30, and 15.00 hours—with a placebo or the test substance, using a tube. Four weeks after the last treatment, the gerbils were sacrificed using CO2. A tissue sample of the antrum was introduced into the urease test solution and incubated at 37° C. for 24 hours. Changes in color of the solution from yellow to violet, which resulted from the increase in pH caused by the formation of NH3 from the urease, were detected. The eradication rate was calculated as the percentage of animals whose stomach tissue sample gave a negative urease test.
Conditions Under Which the Animals Were Kept:
Groups of 5-10 gerbils per cage (type IV Macrolon cage) were kept at an ambient temperature of 23±2° C. and a relative humidity of 50±10%. They were fed ad libitum with NAFAG feed No. 9439 for rats and mice (NAFAG AG, CH-2900, Gosseu, Switzerland) and had free access to mains water during the experiment.
The substances administered are referenced in table C below using numbers which correspond to the numbers of the compounds in the examples.

E. coli = test: Inhibition of growth in vitro in liquid culture (NanoOrange fluorescence); format: cell-based; settings: Escherichia coli, 24 hours incubation
Procedure: (§1) Determination of the Inhibition of Growth in Vitro in Liquid Culture
(§2) The principle of the technique is based on the detection of the multiplication of, for example, Helicobacter pylori in liquid culture using BHI/6% FCS medium. The method ensures linear fluorescence increase in the range from […].
(§3) The bacterial culture was distributed with an initial density of 1-3×10^8 microbes/ml in a 96-well MTP in 100 μl aliquots. The test substances in a concentration of […] in a final concentration of 1% DMSO were added to these minicultures. These MTPs were then incubated under microaerobic conditions (Anaerokult, Merck) and with shaking at 37° C. for 24 hours. Following the 24-hour incubation, the minicultures were transferred to filter MTPs and washed twice with isotonic buffer (filtered off with suction, taken up, shaken) and finally were taken up in double-distilled water and shaken, and an aliquot was transferred to a new MTP. This aliquot was admixed with the fluorescent dye NanoOrange (Molecular Probes) in accordance with the manufacturer's instructions. Development of protein detection took piece at 90° C. in a pressure-secured sandwich technique. After the plates had cooled, the fluorescence was measured on a plate reader at 549 nm. […] This calculation was made using origin, sigmoidal curve adaptation by means of the ‘logistic’ algorithm.

Helicobacter pylori [2] = test: as above; format: cell-based; settings: BHI/6% FCS medium, 24 hours, 37° C., microaerobic, 1% DMSO
Procedure: as §1, §2, §3

Helicobacter pylori [3] = test: Agar dilution test (inhibition of growth in vitro on agar plates); format: cell-based; settings: Columbia agar (Oxoid), growth period of 4 days; for MIC50: Helicobacter pylori, 96 h, read-out: approx. MIC50

## Cc1nc(C)c(Cl)c(NCc2ccc(Oc3ccc4ncc([N+](=O)[O-])n4n3)cc2)n1 [Compound 1, (5-Chloro-2,6-dimethylpyrimidin-4-yl)[4-(3-nitroimidazo[1,2-b]pyridazin-6-yloxy)benzyl]amine]
Helicobacter pylori [1]
  Eradication rate: 100%
other
  melting point: 203 °C
E. coli
  IC50: > 1 µM
Helicobacter pylori [2]
  IC50: 0.026 µM
Helicobacter pylori [3]
  MIC50: ~0.005 µg/mL (≈ 0.0117 µM)

## Cc1nc(C)c(Cl)c(NCc2cccc(Oc3ccc4ncc([N+](=O)[O-])n4n3)c2)n1 [Compound 3, (5-Chloro-2,6-dimethylpyrimidin-4-yl)[3-(3-nitroimidazo[1,2-b]pyridazin-6-yloxy)benzyl]-amine]
other
  melting point: 222 to 223 °C
Helicobacter pylori [3]
  MIC50: ~0.05 µg/mL (≈ 0.117 µM)

## COc1cc(CNc2nc(C)nc(C)c2Cl)ccc1Oc1ccc2ncc([N+](=O)[O-])n2n1 [Compound 4, (5-Chloro-2,6-dimethylpyrimidin-4-yl)[3-methoxy-4-(3-nitroimidazo[1,2-b]pyridazin-6-yloxy)-benzyl]amine]
Helicobacter pylori [1]
  Eradication rate: 100%
other
  melting point: 229 to 232 °C
Helicobacter pylori [3]
  MIC50: ~0.001 µg/mL (≈ 0.00219 µM)

## Cc1nc(C)c(Cl)c(NCc2ccc(Oc3ccc4ncc([N+](=O)[O-])n4n3)c(OCC3CC3)c2)n1 [Compound 6, (5-Chloro-2,6-dimethylpyrimidin-4-yl)[3-cyclopropylmethoxy-4-(3-nitroimidazo[1,2-b]pyridazin-6-yloxy)benzyl]amine]
other
  melting point: 178 to 180 °C

## Cc1nc(C)c(Cl)c(NCc2ccc(Oc3ccc4ncc([N+](=O)[O-])n4n3)c(OC(F)F)c2)n1 [Compound 8, (5-Chloro-2,6-dimethylpyrimidin-4-yl)[3-(1,1-difluoromethoxy)-4-(3-nitroimidazo[1,2-b]pyridazin-6-yloxy)benzyl]amine]
Helicobacter pylori [1]
  Eradication rate: 100%
other
  melting point: 191 to 193.5 °C
Helicobacter pylori [3]
  MIC50: ~0.01 µg/mL (≈ 0.0203 µM)

## Cc1nc(C)c(Cl)c(NCc2ccc(Oc3ccc4ncc([N+](=O)[O-])n4n3)c(C)c2)n1 [Compound 9, (5-Chloro-2,6-dimethylpyrimidin-4-yl)[3-methyl-4-(3-nitroimidazo[1,2-b]pyridazin-6-yloxy)-benzyl]amine]
other
  melting point: 183 to 185 °C
Helicobacter pylori [3]
  MIC50: ~0.001 µg/mL (≈ 0.00227 µM)

## Cc1nc(C)c(Cl)c(NCc2ccc(Oc3ccc4ncc([N+](=O)[O-])n4n3)c(F)c2)n1 [Compound 10, (5-Chloro-2,6-dimethylpyrimidin-4-yl)[3-fluoro-4-(3-nitroimidazo[1,2-b]pyridazin-6-yloxy)-benzyl]amine]
Helicobacter pylori [1]
  Eradication rate: 100%
other
  melting point: 193 to 196 °C
Helicobacter pylori [3]
  MIC50: ~0.01 µg/mL (≈ 0.0225 µM)

## Cc1nc(C)c(Cl)c(NCc2ccc(Oc3ccc4ncc([N+](=O)[O-])n4n3)cc2F)n1 [Compound 11, (5-Chloro-2,6-dimethylpyrimidin-4-yl)[2-fluoro-4-(3-nitroimidazo[1,2-b]pyridazin-6-yloxy)-benzyl]amine]
Helicobacter pylori [1]
  Eradication rate: 100%
other
  melting point: 147 to 149 °C
Helicobacter pylori [3]
  MIC50: ~0.01 µg/mL (≈ 0.0225 µM)

## Cc1nc(C)c(Cl)c(NCc2ccc(Oc3ccc4ncc([N+](=O)[O-])n4n3)c(OCC(F)(F)F)c2)n1 [Compound 12, (5-Chloro-2,6-dimethylpyrimidin-4-yl)[4-(3-nitroimidazo[1,2-b]pyridazin-6-yloxy)-3-(2,2,2-trifluoroethoxy)benzyl]amine]
other
  melting point: 185 to 188 °C
Helicobacter pylori [3]
  MIC50: ~0.01 µg/mL (≈ 0.0191 µM)

## COc1cc(CNc2nc(C)nc(C)c2Cl)cc(Oc2ccc3ncc([N+](=O)[O-])n3n2)c1 [Compound 13, (5-Chloro-2,6-dimethylpyrimidin-4-yl)[3-methoxy-5-(3-nitroimidazo[1,2-b]pyridazin-6-yloxy)-benzyl]amine]
other
  melting point: 198 to 199 °C

## Cc1nc(C)c(Cl)c(NCc2cc(O)cc(Oc3ccc4ncc([N+](=O)[O-])n4n3)c2)n1 [Compound 14, 3-[(5-Chloro-2,6-dimethylpyrimidin-4-ylamino)methyl]-5-(3-nitroimidazo[1,2-b]pyridazin-6-yloxy)phenol]
other
  melting point: 263 °C
Helicobacter pylori [3]
  MIC50: ~0.01 µg/mL (≈ 0.0226 µM)

## Cc1nc(C)c(Cl)c(NCc2cc(Oc3ccc4ncc([N+](=O)[O-])n4n3)ccc2F)n1 [Compound 15, (5-Chloro-2,6-dimethylpyrimidin-4-yl)[2-fluoro-5-(3-nitroimidazo[1,2-b]pyridazin-6-yloxy)-benzyl]amine]
Helicobacter pylori [3]
  MIC50: ~0.001 µg/mL (≈ 0.00225 µM)

## COc1cc(CNc2nc(C)nc(C)c2Cl)cc(Br)c1Oc1ccc2ncc([N+](=O)[O-])n2n1 [Compound 16, [3-Bromo-5-methoxy-4-(3-nitroimidazo[1,2-b]pyridazin-6-yloxy)benzyl](5-chloro-2,6-dimethyl-pyrimidin-4-yl)amine]
Helicobacter pylori [1]
  Eradication rate: 100%
other
  melting point: 230 to 234 °C

## O=[N+]([O-])c1cnc2ccc(Oc3ccc(CNc4ncncc4Cl)cc3)nn12 [Compound 17, (5-Chloro-pyrimidin-4-yl)-[4-(3-nitro-imidazo[1,2-b]pyridazin-6-yloxy)-benzyl]-amine]
other
  melting point: 185 °C

## Cc1nc(C)c(Cl)c(NCc2ccc(Oc3ccc4ncc([N+](=O)[O-])n4n3)c(O)c2)n1 [Compound 18, (5-Chloro-2,6-dimethyl-pyrimidin-4-yl)-[4-(3-nitro-imidazo[1,2-b]pyridazin-6-yloxy)-5-hydroxy-benzyl]-amine]
other
  melting point: > 114 °C

## (5-Chloro-2,6-dimethylpyrimidin-4-yl)[4-methoxy-3-nitroimidazo[1,2-b]pyridazin-6-yloxy)-benzyl]amino [Compound 5]
Helicobacter pylori [3]
  approx. MIC50: ~0.05 µg/mL
